Activity calls are given as the source filed them. No rule for the calls is given here.
Target: Trace amine-associated receptor 1 (Homo sapiens) (UniProt Q96RJ0)
Test: TAAR1 agonist activity of antagonist analogs, SAR follow-up, counter-screen for TAAR1 antagonist project, cell-based, fluorescence, human, MedChem round 2 (AID 1053182)
Details: TAAR1-expressing cells, cAMP fluorescence agonist mode

Sequence of Trace amine-associated receptor 1 (Homo sapiens) (Q96RJ0 whole entry, looked up): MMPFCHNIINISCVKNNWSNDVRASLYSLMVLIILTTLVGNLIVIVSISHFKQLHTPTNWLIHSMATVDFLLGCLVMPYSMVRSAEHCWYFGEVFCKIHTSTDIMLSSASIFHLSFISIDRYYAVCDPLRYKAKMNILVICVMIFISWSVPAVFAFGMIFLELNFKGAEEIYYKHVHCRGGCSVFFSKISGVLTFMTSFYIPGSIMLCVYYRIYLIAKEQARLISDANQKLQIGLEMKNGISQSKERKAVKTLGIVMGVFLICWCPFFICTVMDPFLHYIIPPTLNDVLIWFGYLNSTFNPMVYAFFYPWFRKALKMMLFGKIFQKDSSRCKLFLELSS

EC50	SMILES
> 29900 nM (inactive)	N#Cc1c(C(F)(F)F)cc(-c2ccc(Cl)cc2)nc1SCC(=O)Nc1ncccn1
245 nM	CC(CN1CCCC1Cc1ccccc1)C(=O)c1ccc2c(c1)OCCO2 (configuration not stated)
100 nM	O=C(CCN1CCC(c2ccccc2)C1)c1ccccc1 (configuration not stated)
282 nM	Cc1ccc(C(=O)CCN2CCC(c3ccccc3)C2)cc1 (configuration not stated)
122 nM	COc1cc(C(=O)CCN2CCC(c3ccccc3)C2)cc(OC)c1OC (configuration not stated)
> 29900 nM (inactive)	N#Cc1c(C(F)(F)F)cc(-c2ccc(Cl)cc2)nc1SCC(=O)N1CCCCCC1
> 29900 nM (inactive)	N#Cc1c(C(F)(F)F)cc(-c2ccc(Cl)cc2)nc1SCC(=O)N1CCCC1
